In brackets after ≈: the same amount, converted by molar mass.
Test system: Escherichia coli
Assay: Antimicrobial activity against Escherichia coli AJE0508 isolate carrying ISCR1 element related blaCTX-M-14 gene by agar dilution method
Assay type: functional

Compound | MIC
CO[C@@]1(NC(=O)Cc2cccs2)C(=O)N2C(C(=O)O)=C(COC(N)=O)CS[C@@H]21 [CEFOXITIN] | 8 µg/mL (≈ 18.7 µM)
CC(C)(O/N=C(\C(=O)N[C@@H]1C(=O)N2C(C(=O)[O-])=C(C[n+]3ccccc3)CS[C@H]12)c1csc(N)n1)C(=O)O [CEFTAZIDIME] | 32 µg/mL (≈ 58.5 µM)
CO/N=C(\C(=O)N[C@@H]1C(=O)N2C(C(=O)O)=C(COC(C)=O)CS[C@H]12)c1csc(N)n1 [CEFOTAXIME] | 64 µg/mL (≈ 141 µM)
CC1(C)S[C@@H]2[C@H](NC(=O)[C@H](N)c3ccccc3)C(=O)N2[C@H]1C(=O)O [AMPICILLIN] | > 256 µg/mL
C[C@@H](O)[C@H]1C(=O)N2C(C(=O)O)=C(SCCNC=N)C[C@H]12 [IMIPENEM ANHYDROUS] | 0.1 µg/mL (≈ 0.334 µM)
C[C@H]1[C@H](NC(=O)/C(=N\OC(C)(C)C(=O)O)c2csc(N)n2)C(=O)N1S(=O)(=O)O [AZTREONAM] | 64 µg/mL (≈ 147 µM)

Source: ChEMBL document CHEMBL1155160, “Novel complex class 1 integron bearing an ISCR1 element in an Escherichia coli isolate carrying the blaCTX-M-14 gene” (2007)
